Data on four compounds can be found in patent US20210308137A1, “ANTIVIRAL COMPOUNDS AND METHOD FOR TREATING HEPATOTROPIC VIRAL INFECTION, PARTICULARLY HEPATITIS B AND HEPATITIS D” (priority 2020, published 2021).

Series [1] can be described thus: Cell viability MTT assay in Vero E6 cells. It counts as cell-based. Particulars: African green monkey. On the procedure:
(§1) HepG2.2.15 and HuS-E/2 cells were seeded at 1×10^4 cells/well in a 96-well plate for 20 h, then the cells were treated with the tested compounds at various concentration (0-500 μM) for 48 h. After the treatment, cell viability was examined using MTT [3-(4,5-dimethylthiazol-2-yl)-2,5-diphenyl tetrazolium bromide] assay (Sigma Chemical Co.). Briefly, a final concentration of 0.5 mg/ml MTT was added to each well and the samples were incubated for 1 h at 37° C., and then the supernatant was aspirated. The MTT-formazan crystals formed by metabolically viable cells were dissolved in 70 μl of DMSO, and the absorbance at 550 nm was measured on a microplate reader.
(§2) The compounds used were SH-001, SH-002, and SH-003. Before testing their potential antiviral effect on HBV and HDV infection, we first examined their toxicity on VeroE6 cells, HepG2.2.15 cells and HuS-E/2 immortalized human primary hepatocytes cells at concentration from 0 to 320 μM as indicated.
For orientation: Formazan colour is commonly taken as a measure of viable cells.

A short description of series [2]: Cell viability MTT assay in HepG2.2.15 cells. It is filed as cell-based. Conditions: human, 0-320 μM. On the procedure:
as §1, §2

Series [3] is described as follows: Cell viability MTT assay in HuS-E/2 cells. It is filed as cell-based. Particulars: human. The protocol:
as §1, §2

Series [4] concerns HBV. In words: Inhibition of HBV replication in HepG2.2.15 cells (HBsAg and HBeAg by ELISA, HBV DNA by real-time PCR). It counts as cell-based, Hepatitis B virus (ayw subtype). Particulars: 48 h; for HBeAg levels reduced to (percentage of non-drug-treated control) / HBsAg levels reduced to (percentage of non-drug-treated control) / amount of HBV DNA in culture medium: 10 μM; for HBeAg levels reduced to (percentage of non-drug-treated control) / HBsAg levels reduced to (percentage of non-drug-treated control): culture medium; for HBeAg levels reduced to (percentage of non-drug-treated control) / HBsAg levels reduced to (percentage of non-drug-treated control) / levels of HBeAg in the culture supernatant (in words) / levels of HBsAg in the culture supernatant (in words) / IC50: ELISA; for amount of HBV DNA in culture medium: untreated cells 3.43*10^5 copies/ml; for levels of HBeAg in the culture supernatant (in words) / levels of HBsAg in the culture supernatant (in words) / HBV DNA (in words) / IC50: HepG2.2.15 cells; for HBV DNA (in words): Q-PCR, dose-dependent; for IC50: Hepatitis B virus, estimated. The source says: Plasmid p1.3HBcl, which contains a 1.3-fold HBV genome (ayw subtype), was used as standard in parallel PCR reactions. The results are expressed as a percentage of the non-drug-treated positive control (NT) and are shown as mean±SD for three independent experiments.
Continuous HBV proliferation can be achieved in HepG2.2.15 cells (RRID:CVCL_L855) stably transfected with the HBV genome of the ayw subtype. HepG2.2.15 cells were maintained in Dulbecco's modified Eagle medium (DMEM; Invitrogen) supplemented with 10% heat-inactivated fetal bovine serum (FBS; Thermo) plus 100 units of penicillin and 100 μg of streptomycin per ml (both from Invitrogen).
The viruses were then collected from the supernatant. Q-PCR was used to detect HBV DNA as an index of efficiency of HBV replication. Next, the HBV HBsAg and HBeAg were examined by ELISA assay.
The culture medium from compound-treated HepG2.2.15 cells was clarified by centrifugation at 1,000×g at 4° C. for 10 min, and then the supernatant was layered on top of a 20% sucrose cushion (20% sucrose, 20 mM HEPES, pH 7.4, 0.1% bovine serum albumin [BSA]) and centrifuged at 197,000×g for 3 h at 4° C. to pellet the HBV particles. The particles were then concentrated 100 fold to detect HBV DNA.
Q-PCR was performed to detect HBV DNA as an efficiency index of HBV replication. Moreover, the HBV HBsAg and HBeAg were examined by ELISA assay.

Series [5] relates to HBV. In words: In vitro antiviral IC50 compared with Lamifudine in the same human liver cell line. It is filed as cell-based. Conditions: human liver cell line as the host. The source says: The potency difference is significant.
The test system of a further series is HDV. Description: Inhibition of HDV infection/replication in HuS-E/2 cells (HDV RNA by real-time PCR). Particulars: for HDV RNA levels reduced to (percentage of non-drug-treated control): HuS-E/2 cells, 18 h infection + 48 h; for IC50: Hepatitis delta virus, HuS-E/2, read-out: IC50 (HDV RNA); for HDV replication (in words): HuS-E/2 human hepatocytes. (In general: Quantitative PCR measures a nucleic acid by following its amplification.)

Procedure for HDV: HDV genome was measured by RT-PCR and expressed as the percentage of the value for the non-drug-treated controls (NT). Control PCRs were performed for endogenous GAPDH mRNA as the loading control. […] The results are the mean±SD for three independent experiments.
HuS-E/2 cells that retain primary hepatocyte characteristics after prolonged culture were utilized for HDV infection. For HDV infection, HuS-E/2 cells were differentiated with 1% DMSO for 5-7 days, and HDV virus particles were added to infect and replicate in HuS-E/2 cells (MOI=10) as described by Huang et al. (J Virol. 2012 September; 86(17):9443-53. Epub 2012 Jun. 27) The HuS-E/2 cells are useful to assay infectivity of HDV, and screening of anti-HDV agents.
The compounds were added to the medium at the indicated concentration during infection with HDV for 18 h, then the infected cells were incubated in medium containing the compounds for further 48 h. Real-time PCR was performed to detect HDV RNA as an efficiency index of HDV infection.
Total DNA was extracted with a Genomic DNA isolation kit (Nexttec Biotechnologie, Germany). Total RNA was isolated from cultured cells using TRIzol® reagent (Invitrogen). Reverse transcription was performed with the RNA templates, AMV reverse transcriptase (Roche), and oligo-dT primer. The products were subjected to real-time PCR with primer sets of specific genes and SYBR Green PCR Master Mix (Bio-Rad). The primer sets used for HBV DNA and HDV RNA were as described by Huang et al. (J Virol. 2012 September; 86(17):9443-53. Epub 2012 Jun. 27) The results were analyzed with the iCycler iQ real-time PCR detection system (Bio-Rad).
The infected cells were then washed and incubated in medium containing the tested compounds for further 48 h, and real-time PCR was used to detect HDV mRNA as an efficiency index of HDV infection.

With `O=C(O)c1ccc2c(c1)nc(Nc1cccc(Cl)c1)c1ccncc12` [SH-001, Silmitasertib], the CC50 (commonly the concentration at which the toxic effect on the cells reaches its halfway point) at 48 h in series [1] (VeroE6 cells, 48 h, MTT, 0-320 μM, read-out: CC50) was over 205 µM. The CC50 at 48 h in series [2] is over 195 µM. Further, the CC50 at 48 h in series [3] (HuS-E/2 cells, 48 h, MTT, 0-320 μM, read-out: CC50) is over 195 µM. Further, in the series on HBV [4], the “HBeAg levels reduced to (percentage of non-drug-treated control)” value is reported as 53.66±3.02%, the “HBsAg levels reduced to (percentage of non-drug-treated control)” value was 39.85±1.78%, the “amount of HBV DNA in culture medium” value is 5.51*10^4 copies/ml and the “levels of HBeAg in the culture supernatant (in words)” value is given as “significantly decreased”. In the series with HBV [4], the “levels of HBsAg in the culture supernatant (in words)” value was “significantly decreased” and the “HBV DNA (in words)” value was “repressed”. The IC50 – broadly, the concentration needed to halve the response being measured – in the series with HBV [4] (read-out: IC50 (HBeAg)) is 12 µM. Besides, the 50% inhibitory concentration (IC50) in the series on HBV [4] (read-out: IC50 (HBsAg)) is 6.63 µM. In the series with HBV [5] (Hepatitis B virus), the IC50 was at least 0.005 µM. For the same compound, the “HDV RNA levels reduced to (percentage of non-drug-treated control)” value in the series with HDV (2.5 μM) was 28.8±22.8%. In the series on HDV (5 μM), the “HDV RNA levels reduced to (percentage of non-drug-treated control)” value came out at 8.7±1.3%. Further, in the series on HDV, the half-inhibitory concentration (IC50) is about 0.146 µM and the “HDV replication (in words)” value was “significantly inhibited”.
Regarding `Nc1ccn([C@@H]2CS[C@H](CO)O2)c(=O)n1` [Lamifudine, reference compound], the IC50 in the series on HBV [5] amounted to 0.358 µM.
`CC(N)C(=O)OCN1C(=O)N/C(=C\c2cnn3c(NC4CC4)cc(Nc4cc(Cl)ccc4F)nc23)C1=O` (stereo not shown) [SH-003]: in series [1], the CC50 at 48 h was over 205 µM.
Regarding `O=C1NC(=O)/C(=C/c2cnn3c(NC4CC4)cc(Nc4cc(Cl)ccc4F)nc23)N1` [SH-002], the 50% cytotoxic concentration (CC50) at 48 h was over 61.3 µM in series [1], over 164 µM in series [2] and over 164 µM in series [3]. Besides, in the series with HBV [4], the “HBeAg levels reduced to (percentage of non-drug-treated control)” value was found to be 61.18±6.43%. Moreover, in the series on HBV [4], the “HBsAg levels reduced to (percentage of non-drug-treated control)” value came to 52.01±3.05%. Also, the “amount of HBV DNA in culture medium” value in the series on HBV [4] is recorded as 3.13*10^4 copies/ml. In addition, in the series on HBV [4], the “levels of HBeAg in the culture supernatant (in words)” value is recorded as “significantly decreased”. In addition, the “levels of HBsAg in the culture supernatant (in words)” value with HBV [4] is given as “significantly decreased”. For the same compound, in the series on HBV [4], the “HBV DNA (in words)” value is listed as “repressed”. Moreover, the IC50 in the series with HBV [4] (read-out: IC50 (HBeAg)) was 168 µM; in the series with HBV [4] (read-out: IC50 (HBsAg)), 11.8 µM; in the series with HBV [5] (Hepatitis B virus), at least 0.005 µM; in the series with HDV, about 0.069 µM. Moreover, the “HDV RNA levels reduced to (percentage of non-drug-treated control)” value in the series with HDV (0.1 μM) is on record as 53.1±16.8%; with HDV (0.2 μM) it was 40.8±18.6%. Also, in the series with HDV, the “HDV replication (in words)” value is “significantly inhibited”.
